What was measured:
human GLP-1 receptor [1] = target: T1, human GLP-1 receptor (Homo sapiens, UniProt P43220); experiment: GLP-1 receptor binding (SPA, displacement of 125I-GLP-1)
T1 construct: expressed in transfected cells; host or cells: BHK cells, clone FCW467-12A/KZ10-1 (parent line BHKTS13), further transfected with CRE luciferase
Procedure: The purpose of this experiment is to investigate the binding to the GLP-1 receptor of the GLP-1 derivatives, and how the binding is potentially influenced by the presence of albumin. This is done in an in vitro experiment as described below.
In order to test the binding of the derivatives to albumin, the assay was performed with a low concentration of albumin (0.001%—corresponding to the residual amount thereof in the tracer), as well as with a high concentration of albumin (2.0% added). A shift in the binding affinity, IC50, is an indication that the peptide in question binds to albumin, and thereby a prediction of a potential protracted pharmacokinetic profile of the peptide in question in animal models.
Species (in vitro): Hamster
Biological End Point: Receptor Binding
A stable transfected cell line and a high expressing clone were selected for screening. The cells were grown at 5% CO2 in DMEM, 10% FCS, 1% Pen/Strep (Penicillin/Streptomycin) and 1.0 mg/ml of the selection marker G418.
The cells (approx. 80% confluence) were washed twice in PBS and harvested with Versene (aqueous solution of the tetrasodium salt of ethylenediaminetetraacetic acid), following which they were separated by centrifugation at 1000 rpm for 5 min. The cells/cell pellet must be kept on ice to the extent possible in the subsequent steps. The cell pellet was homogenised with Ultrathurrax for 20-30 seconds in a suitable amount of Buffer 1 (depending on the amount of cells, but e.g. 10 ml). The homogenate was centrifuged at 20000 rpm for 15 minutes. The pellet was resuspended (homogenised) in 10 ml Buffer 2 and re-centrifuged. This step was repeated once more. The resulting pellet was resuspended in Buffer 2, and the protein concentration was determined. The membranes were stored at minus 80° C.
Buffer 1:20 mM Na-HEPES+10 mM EDTA, pH 7.4
Buffer 2:20 mM Na-HEPES+0.1 mM EDTA, pH 7.4
Test compounds, membranes, SPA-particles and [^125I]-GLP-1(7-36)NH2 were diluted in assay buffer. 50 ul (micro liter) HSA (“high albumin” experiment containing 2% HSA), or buffer (“low albumin” experiment containing 0.001% HSA) was added to Optiplate, and 25 ul of test compounds were added. 5-10 ug membrane protein/sample was added (50 ul) corresponding to 0.1-0.2 mg protein/ml (to be preferably optimised for each membrane preparation). SPA-particles (Wheatgerm agglutinin SPA beads, Perkin Elmer, # RPNQ0001) were added in an amount of 0.5 mg/well (50 ul). The incubation was started with [^125I]-GLP-1]-(7-36)NH2 (final concentration 0.06 nM corresponding to 49.880 DPM, 25 ul). The plates were sealed with PlateSealer and incubated for 120 minutes at 30° C. while shaking. The plates were centrifuged (1500 rpm, 10 min) and counted in Topcounter.

human GLP-1 receptor [2] = target: T1, human GLP-1 receptor; experiment: In vitro potency (CRE luciferase; whole cells); format: cell-based; set-up: EC50/pM (ratio 1% HSA/0% HSA): unit not given here; conditions: for EC50: BHK cells; for EC50/pM (ratio 1% HSA/0% HSA): ratio of EC50 at 1% HSA to EC50 at 0% HSA
Procedure: The purpose of this example is to test the activity, or potency, of the GLP-1 derivatives in vitro. The in vitro potency is the measure of human GLP-1 receptor activation in a whole cell assay.
In vitro potency was determined by measuring the response of human GLP-1 receptor in a reporter gene assay. The assay was performed in a stably transfected BHK cell line that expresses the human GLP-1 receptor and contains the DNA for the cAMP response element (CRE) coupled to a promoter and the gene for firefly luciferase (CRE luciferase). When the human GLP-1 receptor was activated it results in the production of cAMP, which in turn results in the luciferase protein being expressed. When assay incubation was completed the luciferase substrate (luciferin) was added and the enzyme converts luciferin to oxyluciferin and produces bioluminescence. The luminescence was measured and was the readout for the assay.
An increase of the in vitro potency, EC50 value, in the presence of serum albumin indicates an affinity to serum albumin and represents a method to predict a protracted pharmacokinetic profile of the test substance in animal models.
The cells were cultured at 5% CO2 in cell culture medium. They were aliquoted and stored in liquid nitrogen. Before each assay an aliquot was taken up and washed twice in PBS before being suspended at the desired concentration in the assay specific buffer.
The following chemicals were used in the assay: Pluronic F-68 (10%) (Gibco 2404), human serum albumin (HSA) (Sigma A9511), ovalbumin (Sigma A5503), DMEM w/o phenol red (Gibco 11880-028), 1 M Hepes (Gibco 15630), Glutamax 100× (Gibco 35050) and steadylite plus (PerkinElmer 6016757).
1) Cell stocks were thawed in a 37° C. water bath.
2) Cells were washed three times in PBS.
3) The cells were counted and adjusted to 5×10^3 cells/50 μl (1×10^5 cells/ml) in assay medium. A 50 μl aliquot of cells was transferred to each well in the assay plate.
4) Stocks of the test compounds and reference compounds were diluted to a concentration of 0.2 μM in 0% assay buffer for the 0% HSA CRE luciferase assay and 1% assay buffer for the HSA CRE luciferase assay. […] 5) A 50 μl aliquot of compound or blank was transferred in triplicate from the dilution plate to the assay plate. […] 7) The assay plate was removed from the incubator and allowed to stand at room temperature for 15 min. 8) A 100 μl aliquot of steadylite plus reagent was added to each well of the assay plate (reagent was light sensitive). 9) Each assay plate was covered with aluminum foil to protect it from light and shaken for 30 min at room temperature. 10) Each assay plate was read in a Packard TopCount NXT instrument. Calculations and Results
The data from the TopCount instrument were transferred to GraphPad Prism software. The software averages the values for each replicate and performs a non-linear regression.

[3] = Receptor binding affinity IC50 (high HSA), 2.0% HSA (high albumin)
[4] = Receptor binding affinity IC50 (low HSA), 0.001% HSA (low albumin)
[5] = In vitro potency (CRE luciferase) EC50 (1% HSA), 1% HSA
[6] = In vitro potency (CRE luciferase) EC50 (0% HSA), 0% HSA

T1 sequence (P43220 24-463): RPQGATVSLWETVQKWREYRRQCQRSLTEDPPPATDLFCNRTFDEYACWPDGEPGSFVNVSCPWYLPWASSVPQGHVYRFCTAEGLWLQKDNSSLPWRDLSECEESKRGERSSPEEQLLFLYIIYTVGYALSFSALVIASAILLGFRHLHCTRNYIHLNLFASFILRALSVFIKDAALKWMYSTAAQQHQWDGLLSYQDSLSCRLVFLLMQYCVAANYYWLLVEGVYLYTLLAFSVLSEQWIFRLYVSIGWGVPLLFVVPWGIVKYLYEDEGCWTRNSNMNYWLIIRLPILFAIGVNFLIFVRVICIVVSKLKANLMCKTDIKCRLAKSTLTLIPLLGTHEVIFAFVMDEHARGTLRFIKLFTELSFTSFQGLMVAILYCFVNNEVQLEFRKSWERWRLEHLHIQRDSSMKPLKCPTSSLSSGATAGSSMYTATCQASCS

| Structure (SMILES) | IC50 (human GLP-1 receptor [1]; [3]) [nM] | IC50 (human GLP-1 receptor [1]; [4]) [nM] | EC50 (human GLP-1 receptor [2]; [5]) [nM] | EC50/pM (ratio 1% HSA/0% HSA) (human GLP-1 receptor [2]) | EC50 (human GLP-1 receptor [2]; [6]) [nM] |
| --- | --- | --- | --- | --- | --- |
| CC[C@H](C)[C@H](NC(=O)[C@H](Cc1ccccc1)NC(=O)[C@H](CCC(=O)O)NC(=O)[C@H](CCCCNC(=O)[C@@H](N)CCCCNC(=O)[C@@H](N)CCCCNC(=O)CC[C@H](NC(=O)CCCCCCCCCCOc1ccc(C(=O)O)cc1)C(=O)O)NC(=O)[C@H](C)NC(=O)[C@H](C)NC(=O)[C@H](CCC(N)=O)NC(=O)CNC(=O)[C@H](CCC(=O)O)NC(=O)[C@H](CC(C)C)NC(=O)[C@H](Cc1ccc(O)cc1)NC(=O)[C@H](CO)NC(=O)[C@H](CO)NC(=O)[C@@H](NC(=O)[C@H](CC(=O)O)NC(=O)[C@H](CO)NC(=O)[C@@H](NC(=O)[C@H](Cc1ccccc1)NC(=O)[C@@H](NC(=O)CNC(=O)[C@H](CCC(=O)O)NC(=O)C(C)(C)NC(=O)[C@@H](N)Cc1c[nH]cn1)[C@@H](C)O)[C@@H](C)O)C(C)C)C(=O)N[C@@H](C)C(=O)N[C@@H](Cc1c[nH]cn1)C(=O)N[C@@H](CC(C)C)C(=O)N[C@H](C(=O)N[C@@H](CCC(N)=O)C(=O)NCC(=O)N[C@@H](CCCNC(=N)N)C(=O)N[C@@H](CCCCNC(=O)[C@@H](N)CCCCNC(=O)[C@@H](N)CCCCNC(=O)CC[C@H](NC(=O)CCCCCCCCCCOc1ccc(C(=O)O)cc1)C(=O)O)C(=O)O)C(C)C [Example 31, N^ε26-[(2S)-2-amino-6-[[(2S)-2-amino-6-[[(4S)-4-carboxy-4-[11-(4-carboxyphenoxy)undecanoylamino]butanoyl]amino]hexanoyl]amino]hexanoyl], N^ε37-[(2S)-2-amino-6-[[(2S)-2-amino-6-[[(4S)-4-carboxy-4-[11-(4-carboxyphenoxy)undecanoylamino]butanoyl]amino]hexanoyl]amino]hexanoyl]-[Aib^8,His^31,Gln^34,Lys^37]-GLP-1-(7-37)-peptide] | 40 | 0.76 | 0.55 | 82 |  |
| CC[C@H](C)[C@H](NC(=O)[C@H](Cc1ccccc1)NC(=O)[C@H](CCC(=O)O)NC(=O)[C@H](CCCCNC(=O)[C@@H](N)CCCCNC(=O)[C@@H](N)CCCCNC(=O)CC[C@H](NC(=O)CCCCCCCCCOc1ccc(C(=O)O)cc1)C(=O)O)NC(=O)[C@H](C)NC(=O)[C@H](C)NC(=O)[C@H](CCC(N)=O)NC(=O)CNC(=O)[C@H](CCC(=O)O)NC(=O)[C@H](CC(C)C)NC(=O)[C@H](Cc1ccc(O)cc1)NC(=O)[C@H](CO)NC(=O)[C@H](CO)NC(=O)[C@@H](NC(=O)[C@H](CC(=O)O)NC(=O)[C@H](CO)NC(=O)[C@@H](NC(=O)[C@H](Cc1ccccc1)NC(=O)[C@@H](NC(=O)CNC(=O)[C@H](CCC(=O)O)NC(=O)C(C)(C)NC(=O)[C@@H](N)Cc1c[nH]cn1)[C@@H](C)O)[C@@H](C)O)C(C)C)C(=O)N[C@@H](C)C(=O)N[C@@H](Cc1c[nH]cn1)C(=O)N[C@@H](CC(C)C)C(=O)N[C@H](C(=O)N[C@@H](CCC(N)=O)C(=O)NCC(=O)N[C@@H](CCCNC(=N)N)C(=O)N[C@@H](CCCCNC(=O)[C@@H](N)CCCCNC(=O)[C@@H](N)CCCCNC(=O)CC[C@H](NC(=O)CCCCCCCCCOc1ccc(C(=O)O)cc1)C(=O)O)C(=O)O)C(C)C [Example 32, N^ε26-[(2S)-2-amino-6-[[(2S)-2-amino-6-[[(4S)-4-carboxy-4-[10-(4-carboxyphenoxy)decanoylamino]butanoyl]amino]hexanoyl]amino]hexanoyl], N^ε37-[(2S)-2-amino-6-[[(2S)-2-amino-6-[[(4S)-4-carboxy-4-[10-(4-carboxyphenoxy)decanoylamino]butanoyl]amino]hexanoyl]amino]hexanoyl]-[Aib^8,His^31,Gln^34,Lys^37]-GLP-1-(7-37)-peptide] | 27 | 1.57 | 0.162 | 14 | 0.011 |
| CC[C@H](C)[C@H](NC(=O)[C@H](Cc1ccccc1)NC(=O)[C@H](CCC(=O)O)NC(=O)[C@H](CCCCNC(=O)[C@@H](N)CCCCNC(=O)[C@@H](N)CCCCNC(=O)COCCOCCNC(=O)COCCOCCNC(=O)CC[C@H](NC(=O)CCCCCCCCCCOc1ccc(C(=O)O)cc1)C(=O)O)NC(=O)[C@H](C)NC(=O)[C@H](C)NC(=O)[C@H](CCC(N)=O)NC(=O)CNC(=O)[C@H](CCC(=O)O)NC(=O)[C@H](CC(C)C)NC(=O)[C@H](Cc1ccc(O)cc1)NC(=O)[C@H](CO)NC(=O)[C@H](CO)NC(=O)[C@@H](NC(=O)[C@H](CC(=O)O)NC(=O)[C@H](CO)NC(=O)[C@@H](NC(=O)[C@H](Cc1ccccc1)NC(=O)[C@@H](NC(=O)CNC(=O)[C@H](CCC(=O)O)NC(=O)C(C)(C)NC(=O)[C@@H](N)Cc1c[nH]cn1)[C@@H](C)O)[C@@H](C)O)C(C)C)C(=O)N[C@@H](C)C(=O)N[C@@H](Cc1c[nH]c2ccccc12)C(=O)N[C@@H](CC(C)C)C(=O)N[C@H](C(=O)N[C@@H](CCCNC(=N)N)C(=O)NCC(=O)N[C@@H](CCCNC(=N)N)C(=O)N[C@@H](CCCCNC(=O)[C@@H](N)CCCCNC(=O)[C@@H](N)CCCCNC(=O)COCCOCCNC(=O)COCCOCCNC(=O)CC[C@H](NC(=O)CCCCCCCCCCOc1ccc(C(=O)O)cc1)C(=O)O)C(=O)O)C(C)C [Example 33] | 33 | 0.31 | 0.069 | 11 | 0.0074 |

From patent publication US10604554B2, “Double-acylated GLP-1 derivatives” (Novo Nordisk A/S, priority 2012, dated 2020)
